Data taken from PMC3919815, “Anti-Tumor Effects of Novel 5-O-Acyl Plumbagins Based on the Inhibition of Mammalian DNA Replicative Polymerase Activity” (PLoS ONE, 2014).

How the values were obtained:
E. coli pol I = biological target: T1, E. coli pol I (Escherichia coli, UniProt P00582); assay: DNA polymerase activity inhibition; type: biochemical
T1 construct: The Klenow fragment of pol I from E. coli was purchased from Worthington Biochemical Corp; purchased Worthington Biochemical Corp. (Freehold, NJ, USA)

Human pol κ = biological target: T2, Human pol κ (Homo sapiens, UniProt Q9UBT6); assay: DNA polymerase activity inhibition; type: biochemical; conditions: 0.05 units enzyme; mean ± SD (n = 3)
T2 construct: A truncated form of pol κ (residues 1–560) with 6× His-tags attached at the C-terminus; 6× His (C); made in house; host or cells: E. coli
T2 sequence (Q9UBT6 1-560): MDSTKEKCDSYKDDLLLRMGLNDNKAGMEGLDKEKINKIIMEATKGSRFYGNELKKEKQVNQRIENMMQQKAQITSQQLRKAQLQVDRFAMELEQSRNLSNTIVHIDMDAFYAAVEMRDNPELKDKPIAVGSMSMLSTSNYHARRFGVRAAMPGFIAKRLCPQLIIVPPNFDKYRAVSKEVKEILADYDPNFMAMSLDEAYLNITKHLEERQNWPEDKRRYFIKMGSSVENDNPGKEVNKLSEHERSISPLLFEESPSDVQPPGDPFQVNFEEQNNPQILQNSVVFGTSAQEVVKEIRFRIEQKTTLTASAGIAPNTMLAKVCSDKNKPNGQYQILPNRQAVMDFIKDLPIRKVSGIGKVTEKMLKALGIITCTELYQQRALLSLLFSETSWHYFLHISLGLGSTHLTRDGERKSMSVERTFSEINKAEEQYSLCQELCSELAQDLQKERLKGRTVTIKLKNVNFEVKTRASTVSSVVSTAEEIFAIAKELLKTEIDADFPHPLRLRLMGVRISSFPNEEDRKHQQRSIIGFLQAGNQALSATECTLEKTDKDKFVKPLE

A549 (lung cancer) = assay: Cancer cell viability, MTT assay; type: cell-based, human; conditions: 48 h, mean ± SD (n = 5)
Description: (§1) The following human cancer cell lines were obtained from the American Type Culture Collection (Manassas, VA, USA): lung (A549), prostate (DU145 and PC3), colon (HCT116 and HT-29), cervix (HeLa), hepatocellular liver (HepG2), breast (MCF-7), and pancreatic cancer (PANC-1). These cells were cultured in RPMI 1640 medium supplemented with 10% fetal bovine serum, penicillin (100 units/mL), streptomycin (100 µg/mL), and 1.6 mg/mL NaHCO3 at 37°C in a humid atmosphere of 5% CO2/95% air. For the cell viability assay, cells were seeded at 1×10^3 cells/well in a 96-well microplate with various concentrations of the test compounds, and incubated for 48 h. MTT (3-(4,5-dimethylthiazol-2-yl)-2,5-diphenyl tetrazolium bromide) solution was added to a final concentration 0.6 mg/mL in Milli-Q purified water for 2 h, after which time the medium was discarded and the cells lysed in DMSO. A540 was then measured in a microplate reader (Model 680, Bio-Rad Laboratories, Hercules, CA, USA).

DU145 (prostate cancer) = assay: Cancer cell viability, MTT assay; type: cell-based, human; conditions: 48 h, mean ± SD (n = 5)
Description: as §1

MCF-7 (breast cancer) = assay: Cancer cell viability, MTT assay; type: cell-based, human; conditions: 48 h, mean ± SD (n = 5)
Description: as §1

PC3 (prostate cancer) = assay: Cancer cell viability, MTT assay; type: cell-based, human; conditions: 48 h, mean ± SD (n = 5)
Description: as §1

[1] = tested on: nine human cancer cell lines; assay: Cancer cell viability, MTT assay, summary over the panel; type: cell-based; conditions: range over nine cell lines, 48 h
Description: as §1

T1 sequence (P00582 324-928): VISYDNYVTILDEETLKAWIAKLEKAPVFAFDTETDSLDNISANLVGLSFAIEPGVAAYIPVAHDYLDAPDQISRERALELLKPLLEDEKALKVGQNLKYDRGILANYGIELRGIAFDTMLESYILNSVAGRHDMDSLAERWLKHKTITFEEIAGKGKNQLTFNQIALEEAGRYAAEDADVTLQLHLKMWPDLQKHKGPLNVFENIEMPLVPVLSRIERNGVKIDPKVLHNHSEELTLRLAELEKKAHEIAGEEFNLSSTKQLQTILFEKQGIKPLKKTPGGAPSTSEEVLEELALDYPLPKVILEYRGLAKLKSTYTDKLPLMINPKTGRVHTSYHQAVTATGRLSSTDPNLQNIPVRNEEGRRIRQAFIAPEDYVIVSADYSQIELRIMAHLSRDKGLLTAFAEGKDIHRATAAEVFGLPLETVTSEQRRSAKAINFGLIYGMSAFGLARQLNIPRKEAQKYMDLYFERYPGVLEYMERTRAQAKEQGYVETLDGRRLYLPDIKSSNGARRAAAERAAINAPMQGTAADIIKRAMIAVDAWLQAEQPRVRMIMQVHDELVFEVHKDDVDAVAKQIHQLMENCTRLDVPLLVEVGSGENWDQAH

For `CCCCCCCC/C=C\CCCCCCCC(=O)Oc1cccc2c1C(=O)C=C(C)C2=O` [2f, 5-O-oleoyl-2-methyl-1,4-naphthoquinone], the “effect on enzyme activity (in words)” value (E. coli pol I) was “had no effect”, the IC50 (E. coli pol I; 0.05 units enzyme) was > 100 µM and the IC50 (Human pol κ) was 7.6 ± 0.41 µM. The LD50 values (A549 (lung cancer)) was 15.4 ± 1.7 µM, the LD50 values (DU145 (prostate cancer)) was 8.8 ± 0.9 µM and the LD50 values (MCF-7 (breast cancer)) was 7.2 ± 0.7 µM. It also gave an LD50 values (PC3 (prostate cancer)) of 10.0 ± 1.1 µM and an LD50 values [1] of 2.9 to 21.0 µM.
